What is called Kd is the free concentration of one partner at which half of the binding sites on the other are occupied at equilibrium, for simple one-to-one binding.

Numbered stars: 1 amine (or outer) side, 2 acyl side, 3 side chain; on linkers, the order of the positions; unused ones are H or OH. Bridge positions count the residues as written; N and C are the ends. Square brackets hold non-standard residues; d marks the D form. Side chains are listed from the residue outwards. Peptide text beside a SMILES is read from it. * marks the point of attachment. DOTA(Lu) = O=C1CN2CCN3CCN(CC(=O)*)CCN(CC2)CC(=O)[O][Lu]([O]1)[O]C(=O)C3; NH(1-deoxy-D-glucityl) = OC[C@@H](O)[C@@H](O)[C@H](O)[C@@H](O)CN*; DOTA = O=C(O)CN1CCN(CC(=O)O)CCN(CC(=O)*)CCN(CC(=O)O)CC1; Trp(1-Me,7-Cl) = Cn1cc(C[C@H](N)C(=O)O)c2cccc(Cl)c21; dPhe(3-CONH2) = NC(=O)c1cccc(C[C@@H](N)C(=O)O)c1; Piperazinyl(4-CH2COOH) = O=C(O)CN1CCN(*)CC1; Trp(1-Me) = Cn1cc(C[C@H](N)C(=O)O)c2ccccc21; NMemTyr = CN[C@@H](Cc1cccc(O)c1)C(=O)O; NMe3Pal = CN[C@@H](Cc1cccnc1)C(=O)O; NMeF = CN[C@@H](Cc1ccccc1)C(=O)O; Gly(cBu) = N[C@H](C(=O)O)C1CCC1; NMeE = CN[C@@H](CCC(=O)O)C(=O)O; Aad = N[C@@H](CCCC(=O)O)C(=O)O; NMeN = CN[C@@H](CC(N)=O)C(=O)O; CO = O=C([*:1])[*:2]

T1 sequence (P29317 24-534 limits assumed): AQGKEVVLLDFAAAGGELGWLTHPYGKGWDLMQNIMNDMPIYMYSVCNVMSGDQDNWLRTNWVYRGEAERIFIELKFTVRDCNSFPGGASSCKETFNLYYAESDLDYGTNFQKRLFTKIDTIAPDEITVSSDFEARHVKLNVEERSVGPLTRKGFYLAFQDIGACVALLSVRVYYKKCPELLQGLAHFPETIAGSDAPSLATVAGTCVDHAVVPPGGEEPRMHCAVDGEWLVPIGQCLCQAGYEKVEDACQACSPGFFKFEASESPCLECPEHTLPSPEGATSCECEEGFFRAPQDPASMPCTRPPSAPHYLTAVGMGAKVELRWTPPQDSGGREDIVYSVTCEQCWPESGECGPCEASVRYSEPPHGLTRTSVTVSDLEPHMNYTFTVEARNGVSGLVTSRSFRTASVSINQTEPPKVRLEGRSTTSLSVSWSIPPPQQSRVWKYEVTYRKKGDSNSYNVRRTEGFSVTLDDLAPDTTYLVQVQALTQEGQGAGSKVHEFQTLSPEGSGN

One test has as its target T1, Recombinant Human EphA2 Fc Protein (Homo sapiens, UniProt P29317).
T1 construct: purchased Elabscience
Description: Interaction analysis (kinetics, KD) of peptides and conjugates against EphA2 by SPR, Biacore T200, single-cycle kinetics (Examples B15 and B22). The format is binding.
Details: not given
In short, it runs like this:
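Biacore T200 SPR with Fc-tagged human EphA2 captured via anti-human antibody; running buffer HBS-P+ pH 7.4 with 1% DMSO, 25 °C. Five serial dilutions of peptide or conjugate run by single-cycle kinetics; KD from ka and kd after baseline subtraction.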
For orientation: Surface plasmon resonance follows binding to a sensor surface in real time, without labels.
Consider `C[C@@H](O)[C@@H]1NC(=O)[C@H](Cc2cn(C)c3ccccc23)NC(=O)[C@H](CCCCNC(=O)N2CCN(CC(=O)O)CC2)NC(=O)[C@H](Cc2cn(C)c3c(Cl)cccc23)NC(=O)[C@H](CCC(=O)O)N(C)C(=O)[C@H](CCCC(N)=O)NC(=O)[C@H](C2CCC2)NC(=O)[C@H](CC(N)=O)NC(=O)[C@H](Cc2cccc(O)c2)N(C)C(=O)[C@@H](Cc2cccc(C(N)=O)c2)NC(=O)CSC[C@@H](C(=O)N[C@H](CCCCNC(=O)CN2CCN3CCN4CCN(CC2)CC(=O)[O][Lu]([O]C(=O)C3)[O]C(=O)C4)C(=O)O)NC(=O)[C@H](CCCC(N)=O)NC1=O` [PDC_EphA2-00026775] ({CH2CO}-[dPhe(3-CONH2)][NMemTyr]N[Gly(cBu)][Aad](NH2)[NMeE][Trp(1-Me,7-Cl)]K([CO-Piperazinyl(4-CH2COOH)])[Trp(1-Me)]T[Aad](NH2)C[dK](DOTA(Lu))-OH; thioether N-12), for which the Kd was < 1 nM.

In the case of `C[C@H]1NC(=O)CSC[C@@H](C(=O)N[C@H](CCC(=O)O)C(N)=O)NC(=O)[C@H](CCCC(N)=O)NC(=O)[C@H]([C@@H](C)O)NC(=O)[C@H](Cc2cn(C)c3ccccc23)NC(=O)[C@H](CCCCNC(=O)N2CCN(CC(=O)O)CC2)NC(=O)[C@H](Cc2cn(C)c3c(Cl)cccc23)NC(=O)[C@H](CCC(=O)O)N(C)C(=O)[C@H](CCCCNC(=O)[C@@H](Cc2ccccc2)NC(=O)CN2CCN3CCN4CCN(CC2)CC(=O)[O][Lu]([O]C(=O)C3)[O]C(=O)C4)NC(=O)[C@H](C2CCC2)NC(=O)[C@H](CC(N)=O)NC(=O)[C@H](Cc2cccnc2)N(C)C1=O` [PDC_EphA2-00027127] ({CH2CO}-[dA][NMe3Pal]N[Gly(cBu)]K([dF-DOTA(Lu)])[NMeE][Trp(1-Me,7-Cl)]K([CO-Piperazinyl(4-CH2COOH)])[Trp(1-Me)]T[Aad](NH2)C[dE]-NH2; thioether N-12), the Kd was < 1 nM.

With `C[C@H]1NC(=O)CSC[C@@H](C(N)=O)NC(=O)[C@H](CCCCNC(=O)[C@@H](CCC(=O)O)NC(=O)CN2CCN3CCN4CCN(CC2)CC(=O)[O][Lu]([O]C(=O)C3)[O]C(=O)C4)NC(=O)[C@H]([C@@H](C)O)NC(=O)[C@H](Cc2cn(C)c3ccccc23)NC(=O)[C@H](CCCCNC(=O)N2CCN(CC(=O)O)CC2)NC(=O)[C@H](Cc2cn(C)c3c(Cl)cccc23)NC(=O)[C@H](CCC(=O)O)N(C)C(=O)[C@H](CCCC(N)=O)NC(=O)[C@H](C2CCC2)NC(=O)[C@H](CC(N)=O)NC(=O)[C@H](Cc2cccnc2)N(C)C1=O` [PDC_EphA2-00027128] ({CH2CO}-[dA][NMe3Pal]N[Gly(cBu)][Aad](NH2)[NMeE][Trp(1-Me,7-Cl)]K([CO-Piperazinyl(4-CH2COOH)])[Trp(1-Me)]TK([dE-DOTA(Lu)])C-NH2; thioether N-12), the Kd is < 1 nM.

The test is the same for the next values; noted with them: conjugates, Biacore T200 according to Example B15, Table B16; read-out: SPR Kd.
Take `CC(C)C[C@@H]1NC(=O)[C@H](CC(N)=O)NC(=O)[C@H](Cc2cccnc2)N(C)C(=O)[C@@H](C)NC(=O)CSC[C@@H](C(=O)N[C@H](CCCCNC(=O)CN2CCN(CC(=O)O)CCN(CC(=O)O)CCN(CC(=O)O)CC2)C(N)=O)NC(=O)[C@H](CCCC(N)=O)NC(=O)[C@H]([C@@H](C)O)NC(=O)[C@H](Cc2cn(C)c3ccccc23)NC(=O)[C@H](CCCCNC(=O)N2CCN(CC(=O)O)CC2)NC(=O)[C@H](Cc2cn(C)c3ccccc23)NC(=O)[C@H](CCC(=O)O)N(C)C(=O)[C@H](CCCC(N)=O)NC1=O.[Lu+3]` [PDC_EphA2-00026772] ({CH2CO}-[dA][NMe3Pal]NL[Aad](NH2)[NMeE][Trp(1-Me)]K([CO-Piperazinyl(4-CH2COOH)])[Trp(1-Me)]T[Aad](NH2)C[dK](DOTA)-NH2; thioether N-12): the Kd was < 1 nM.

For the molecule `CC(C)[C@@H]1NC(=O)[C@H](Cc2cn(C)c3ccccc23)NC(=O)[C@H](CC(N)=O)N(C)C(=O)[C@H](CCCC(N)=O)NC(=O)[C@H](C2CCC2)NC(=O)[C@H](CC(N)=O)NC(=O)[C@H](Cc2ccccc2)N(C)C(=O)[C@@H](C)NC(=O)CSC[C@@H](C(=O)N[C@H](CCCCNC(=O)CN2CCN(CC(=O)O)CCN(CC(=O)O)CCN(CC(=O)O)CC2)C(=O)O)NC(=O)[C@H](CCCC(N)=O)NC(=O)[C@H]([C@@H](C)O)NC(=O)[C@H](Cc2cn(C)c3ccccc23)NC1=O.[Lu+3]` [PDC_EphA2-00026773] ({CH2CO}-[dA][NMeF]N[Gly(cBu)][Aad](NH2)[NMeN][Trp(1-Me)]V[Trp(1-Me)]T[Aad](NH2)C[dK](DOTA)-OH; thioether N-12), the Kd was < 1 nM.

Consider `C[C@@H](O)[C@@H]1NC(=O)[C@H](Cc2cn(C)c3ccccc23)NC(=O)[C@H](CCC(=O)NC[C@H](O)[C@@H](O)[C@H](O)[C@H](O)CO)NC(=O)[C@H](Cc2cn(C)c3c(Cl)cccc23)NC(=O)[C@H](Cc2cccnc2)N(C)C(=O)[C@H](CCCC(N)=O)NC(=O)[C@H](C2CCC2)NC(=O)[C@H](CC(N)=O)NC(=O)[C@H](Cc2cccnc2)N(C)C(=O)[C@@H](Cc2cccc(C(N)=O)c2)NC(=O)CSC[C@@H](C(=O)N[C@H](CCCCNC(=O)CN2CCN(CC(=O)O)CCN(CC(=O)O)CCN(CC(=O)O)CC2)C(=O)O)NC(=O)[C@H](CCCC(N)=O)NC1=O.[Lu+3]` [PDC_EphA2-00026774] ({CH2CO}-[dPhe(3-CONH2)][NMe3Pal]N[Gly(cBu)][Aad](NH2)[NMe3Pal][Trp(1-Me,7-Cl)]E(NH(1-deoxy-D-glucityl))[Trp(1-Me)]T[Aad](NH2)C[dK](DOTA)-OH; thioether N-12), for which the Kd is < 1 nM.

Turning to `C[C@H]1NC(=O)CSC[C@@H](C(=O)N[C@H](CCC(=O)O)C(=O)O)NC(=O)[C@H](CCCC(N)=O)NC(=O)[C@H]([C@@H](C)O)NC(=O)[C@H](Cc2cn(C)c3ccccc23)NC(=O)[C@H](CCCCNC(=O)N2CCN(CC(=O)O)CC2)NC(=O)[C@H](Cc2cn(C)c3c(Cl)cccc23)NC(=O)[C@H](CCC(=O)O)N(C)C(=O)[C@H](CCCCNC(=O)CN2CCN(CC(=O)O)CCN(CC(=O)O)CCN(CC(=O)O)CC2)NC(=O)[C@H](C2CCC2)NC(=O)[C@H](CC(N)=O)NC(=O)[C@H](Cc2cccnc2)N(C)C1=O.[Lu+3]` [PDC_EphA2-00027103] ({CH2CO}-[dA][NMe3Pal]N[Gly(cBu)]K(DOTA)[NMeE][Trp(1-Me,7-Cl)]K([CO-Piperazinyl(4-CH2COOH)])[Trp(1-Me)]T[Aad](NH2)C[dE]-OH; thioether N-12), the Kd is < 1 nM.

For `C[C@@H](O)[C@@H]1NC(=O)[C@H](Cc2cn(C)c3ccccc23)NC(=O)[C@H](CCCCNC(=O)N2CCN(CC(=O)O)CC2)NC(=O)[C@H](Cc2cn(C)c3c(Cl)cccc23)NC(=O)[C@H](CCC(=O)O)N(C)C(=O)[C@H](CCCCNC(=O)CN2CCN(CC(=O)O)CCN(CC(=O)O)CCN(CC(=O)O)CC2)NC(=O)[C@H](C2CCC2)NC(=O)[C@H](CC(N)=O)NC(=O)[C@H](Cc2cccnc2)N(C)C(=O)[C@@H](Cc2cccc(C(N)=O)c2)NC(=O)CSC[C@@H](C(=O)N[C@H](CCC(=O)O)C(=O)O)NC(=O)[C@H](CCCC(N)=O)NC1=O.[Lu+3]` [PDC_EphA2-00027104] ({CH2CO}-[dPhe(3-CONH2)][NMe3Pal]N[Gly(cBu)]K(DOTA)[NMeE][Trp(1-Me,7-Cl)]K([CO-Piperazinyl(4-CH2COOH)])[Trp(1-Me)]T[Aad](NH2)C[dE]-OH; thioether N-12), the Kd was < 1 nM.

With `C[C@H]1NC(=O)CSC[C@@H](C(=O)N[C@H](CCC(=O)O)C(N)=O)NC(=O)[C@H](CCCC(N)=O)NC(=O)[C@H]([C@@H](C)O)NC(=O)[C@H](Cc2cn(C)c3ccccc23)NC(=O)[C@H](CCCCNC(=O)N2CCN(CC(=O)O)CC2)NC(=O)[C@H](Cc2cn(C)c3c(Cl)cccc23)NC(=O)[C@H](CCC(=O)O)N(C)C(=O)[C@H](CCCCNC(=O)CN2CCN(CC(=O)O)CCN(CC(=O)O)CCN(CC(=O)O)CC2)NC(=O)[C@H](C2CCC2)NC(=O)[C@H](CC(N)=O)NC(=O)[C@H](Cc2cccnc2)N(C)C1=O.[Lu+3]` [PDC_EphA2-00027105] ({CH2CO}-[dA][NMe3Pal]N[Gly(cBu)]K(DOTA)[NMeE][Trp(1-Me,7-Cl)]K([CO-Piperazinyl(4-CH2COOH)])[Trp(1-Me)]T[Aad](NH2)C[dE]-NH2; thioether N-12), the Kd was < 1 nM.

With `C[C@@H](O)[C@@H]1NC(=O)[C@H](Cc2cn(C)c3ccccc23)NC(=O)[C@H](CCCCNC(=O)N2CCN(CC(=O)O)CC2)NC(=O)[C@H](Cc2cn(C)c3c(Cl)cccc23)NC(=O)[C@H](CCC(=O)O)N(C)C(=O)[C@H](CCCCNC(=O)CN2CCN(CC(=O)O)CCN(CC(=O)O)CCN(CC(=O)O)CC2)NC(=O)[C@H](C2CCC2)NC(=O)[C@H](CC(N)=O)NC(=O)[C@H](Cc2cccnc2)N(C)C(=O)[C@@H](Cc2cccc(C(N)=O)c2)NC(=O)CSC[C@@H](C(=O)N[C@H](CCC(=O)O)C(N)=O)NC(=O)[C@H](CCCC(N)=O)NC1=O.[Lu+3]` [PDC_EphA2-00027106] ({CH2CO}-[dPhe(3-CONH2)][NMe3Pal]N[Gly(cBu)]K(DOTA)[NMeE][Trp(1-Me,7-Cl)]K([CO-Piperazinyl(4-CH2COOH)])[Trp(1-Me)]T[Aad](NH2)C[dE]-NH2; thioether N-12), the Kd is < 1 nM.

Regarding `C[C@H]1NC(=O)CSC[C@@H](C(=O)N[C@H](CCC(=O)O)C(N)=O)NC(=O)[C@H](CCCC(N)=O)NC(=O)[C@H]([C@@H](C)O)NC(=O)[C@H](Cc2cn(C)c3ccccc23)NC(=O)[C@H](CCCCNC(=O)N2CCN(CC(=O)O)CC2)NC(=O)[C@H](Cc2cn(C)c3c(Cl)cccc23)NC(=O)[C@H](CCC(=O)O)N(C)C(=O)[C@H](CCCCNC(=O)[C@@H](CCC(=O)O)NC(=O)CN2CCN(CC(=O)O)CCN(CC(=O)O)CCN(CC(=O)O)CC2)NC(=O)[C@H](C2CCC2)NC(=O)[C@H](CC(N)=O)NC(=O)[C@H](Cc2cccnc2)N(C)C1=O.[Lu+3]` [PDC_EphA2-00027126] ({CH2CO}-[dA][NMe3Pal]N[Gly(cBu)]K([dE-DOTA])[NMeE][Trp(1-Me,7-Cl)]K([CO-Piperazinyl(4-CH2COOH)])[Trp(1-Me)]T[Aad](NH2)C[dE]-NH2; thioether N-12), the Kd is < 1 nM.

(Values after patent US20260364215A1, “Radiopharmaceutical Compositions Targeting Ephrin Type-A Receptor 2 and Uses Thereof” (PeptiDream Inc., priority 2022, published 2026).)
